For series [1], the system named is advanced colorectal cancers. The conditions noted are these: 5-FU alone; cited from earlier work.
Series [2] concerns the target T1, dihydropyrimidine dehydrogenase (DPD) (Homo sapiens, UniProt Q12882).
T1 construct: host or cells: endogenous enzyme of the body (in vivo drug catabolism)
T1 sequence (Q12882 4-1025): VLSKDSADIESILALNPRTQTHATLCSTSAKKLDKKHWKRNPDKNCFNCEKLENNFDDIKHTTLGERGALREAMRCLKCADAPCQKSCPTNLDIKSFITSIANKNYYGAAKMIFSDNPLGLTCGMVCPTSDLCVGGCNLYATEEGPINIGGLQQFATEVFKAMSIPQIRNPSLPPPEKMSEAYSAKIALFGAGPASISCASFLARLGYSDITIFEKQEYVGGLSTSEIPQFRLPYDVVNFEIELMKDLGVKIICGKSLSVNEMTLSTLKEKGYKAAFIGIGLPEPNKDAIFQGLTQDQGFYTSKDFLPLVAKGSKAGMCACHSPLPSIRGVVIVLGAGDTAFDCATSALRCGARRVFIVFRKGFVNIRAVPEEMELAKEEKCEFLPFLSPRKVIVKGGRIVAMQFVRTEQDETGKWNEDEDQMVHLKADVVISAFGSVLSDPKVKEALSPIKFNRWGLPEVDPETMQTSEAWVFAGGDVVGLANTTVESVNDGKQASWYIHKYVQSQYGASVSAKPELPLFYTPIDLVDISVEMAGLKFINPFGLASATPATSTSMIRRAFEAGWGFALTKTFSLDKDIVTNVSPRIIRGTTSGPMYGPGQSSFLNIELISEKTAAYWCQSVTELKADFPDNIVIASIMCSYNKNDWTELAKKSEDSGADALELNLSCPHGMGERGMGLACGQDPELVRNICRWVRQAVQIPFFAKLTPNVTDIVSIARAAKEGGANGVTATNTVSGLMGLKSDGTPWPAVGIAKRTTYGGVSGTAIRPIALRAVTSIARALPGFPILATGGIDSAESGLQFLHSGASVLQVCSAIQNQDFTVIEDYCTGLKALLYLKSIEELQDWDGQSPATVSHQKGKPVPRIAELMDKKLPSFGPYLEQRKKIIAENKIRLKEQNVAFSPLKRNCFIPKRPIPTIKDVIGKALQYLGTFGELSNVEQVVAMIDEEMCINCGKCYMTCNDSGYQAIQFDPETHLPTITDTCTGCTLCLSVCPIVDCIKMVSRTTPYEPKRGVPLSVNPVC
The conditions noted are these: cited from earlier work.

For series [3] the following is noted: cited from earlier work.
The conditions of series [4]: human, in vivo.
In series [5] the test system is patients with proliferative LN. To be noted: 59 patients, cited from earlier work; for patients who died during maintenance therapy: followed for as long as 30 months.
Series [6] has as its system patients with class IV LN. To be noted: cited from earlier work; for renal remission achieved: then AZA maintenance.
Series [7] relates to patients with class IV LN. The conditions noted are these: cited from earlier work.
The subject of series [8] is patients with severe LN. To be noted: cited from earlier work; for combined end point, complete plus partial remission (number of patients): P=0.009; for complete remission (number of patients) / complete remission (percent of patients) / partial remission (number of patients): induction therapy of LN; for complete remission (number of patients) / complete remission (percent of patients): 140 patients randomized.

Series [9] relates to rheumatoid arthritis patients. To be noted: five trials, 300 patients, cited from earlier work.
In series [10] the test system is rheumatoid arthritis patients. The conditions noted are these: cited from earlier work.

Molecules are shown by their SMILES. Like-named read-outs stand apart in the source and are kept apart here.

`O=c1[nH]cc(F)c(=O)[nH]1` [5-FU, 5-Fluorouracil]: in [1], the partial remissions is listed as 10-30%. Also, in series [2] (in vivo), the “fraction of a dose transformed by DPD to the inactive dihydrofluorouracil form” value is “more than 80%”. Besides, the “fraction of an injected dose rapidly inactivated by DPD” value in series [2] (injected dose) is reported as “More than 85%”. In addition, the “dose excreted unchanged in the urine” value is on record as 10% in series [3] (normal individuals) and 90% in [3] (people genetically deficient in DPD).

In the case of `Cn1cnc([N+](=O)[O-])c1Sc1ncnc2nc[nH]c12` [AZA, azathioprine], in series [4], the “6-TG level at maintained therapeutic response” value amounted to 187 pmol and the “therapeutic range of 6-TG” value is 140 to 249 pmol. The “patients who developed chronic renal failure during maintenance therapy” value in [5] is reported as “one”.

`O=P1(N(CCCl)CCCl)NCCCO1` (stereo not shown) [CYC, Cyclophosphamide]: the renal remission achieved in [6] (high-dose group (six monthly pulses followed by two quarterly pulses IV)) is 54%. Moreover, the subsequent renal flares in [6] (high-dose group) was 29%. Besides, the renal remission achieved in [6] (low-dose group (500 mg biweekly x six pulses IV)) was 71%. In series [6] (low-dose group), the subsequent renal flares is 27%. Besides, in series [7] (black patients, at year 5), the renal survival is recorded as 71%. In addition, the renal survival rate in [7] (nonblack patients, through 5 years of follow-up) is reported as 95%. Further, in series [8], the “combined end point, complete plus partial remission (number of patients)” value is 21 patients; the “complete remission (number of patients)” value is reported as “four”; the “complete remission (percent of patients)” value is 6%; the “partial remission (number of patients)” value was 17 patients. Also, in series [8] (all in patients randomized to IV CYC), the deaths entry is reported as “Three”. In series [5], the “patients who died during maintenance therapy” value is “four” and the “patients who developed chronic renal failure during maintenance therapy” value is “three”.

For the molecule `COc1c(C)c2c(c(O)c1C/C=C(\C)CCC(=O)OCCN1CCOCC1)C(=O)OC2` [MMF, Mycophenolate mofetil], in series [8], the “combined end point, complete plus partial remission (number of patients)” value was 37 patients; the “complete remission (number of patients)” value was 16 patients; the “complete remission (percent of patients)” value is listed as 23%; the “partial remission (number of patients)” value is listed as “Twenty-one”. Also, in series [5], the “patients who died during maintenance therapy” value is recorded as “one” and the “patients who developed chronic renal failure during maintenance therapy” value is “one”.

Turning to `CN(Cc1cnc2nc(N)nc(N)c2n1)c1ccc(C(=O)N[C@@H](CCC(=O)O)C(=O)O)cc1` [MTX, methotrexate], the “more likely than placebo to discontinue treatment due to adverse reactions” value in series [9] is reported as “three”. The “people who withdrew due to adverse effects” value in series [9] (placebo group seven percent) is given as “twenty-two”. Besides, the “fraction of rheumatoid arthritis patients showing major improvement” value in [10] (human, in vivo) was “one-third”. Moreover, the “patients with mild adverse effects” value in [10] (rheumatoid arthritis patients) is “up to 60%”.

The record behind these values is patent US20060253263A1, “Method to optimize drug selection, dosing and evaluation and to help predict therapeutic response and toxicity from immunosuppressant therapy” (priority 2005, published 2006).
